SMILES strings stand for the structures.

In general, melting point refers to the temperature, or range, at which the solid turns liquid. As to `CCC(CC)Oc1cc(C)nc(Oc2c(C)cc(C)cc2C)c1[N+](=O)[O-]`, the melting point was in the range of 106 to 109 °C. For `Nc1ccc2nc(-c3ccccc3)sc2c1` the value was 200 to 201 °C; for `COc1ccc2c(c1)cc1c3c(cccc32)C(=O)OC1=O`, 292 to 293 °C; for `CCN(C(=O)c1ccc(CCSn2cnc3ccccc32)cc1)C1CCCCC1`, 114 to 115 °C.

`Cc1c(NC(=O)c2ccc(-c3ccc(F)cc3)cc2)ccc2cc(CN(C)C)cnc12` registered a melting point of 161 to 163 °C.

For the molecule `CCOC(=O)Cc1nc(-c2ccccc2)oc1-c1ccco1`, the melting point was in the range of 79 to 80 °C. The molecule `CCC(C)(C)Nc1c(NCc2c(C)cccc2C)c(=O)c1=O` gave a melting point of 227 to 231 °C. For `CN1C(=O)N2CCSC2(c2ccccc2)C1=O` (configuration not stated) the value was 100 to 102 °C. In the case of `CCOC(=O)C(=CNc1sc(-c2ccc(OC)cc2)c(C)c1C(=O)O)C(=O)OCC`, the melting point lay in the range of 184 to 187 °C. For `CC12C=CC(=O)C=C1CCC1C2=CCC2(C)C1CCC2(O)C(=O)CCl` (configuration not stated) the value was 205 to 206 °C; for `CC(=S)NC[C@H]1CN(c2ccc(C3CCS(=O)(=O)N(C)C3)c(F)c2)C(=O)O1` (some centres not stated), 95 to 98 °C.

The molecule `CN1CC(CCCl)Oc2cc(Cl)ccc2C1=S` (configuration not stated) had a melting point of 105 to 106 °C.

Consider `Cc1ccc(N(C(=O)CCl)c2c(F)cccc2Cl)cc1`, for which the melting point was in the range of 80 to 83 °C. The molecule `Fc1ccc(F)c(CN2CCNc3ncc(I)cc32)c1Cl` registered a melting point of 156 to 157 °C. As to `O=C(c1c[nH]c2cc(C#Cc3ccccc3)ccc12)C1CSC(c2cccnc2)N1` (configuration not stated), the melting point was in the range of 103 to 107 °C. For `C[C@H]1CN(c2c(F)c(F)c3c(=O)c(C(=O)O)cn(C4CC4)c3c2F)C[C@H]1N` (relative stereo) the value was 255 to 256 °C; for `CSC1=CNSC1(C#N)SC` (configuration not stated), 63.5 to 64 °C. With `O=C(Nc1ccc(F)cc1F)C(=O)c1c2n(c3ccccc13)CCNCC2` the figure was 184 to 186 °C; with `CCCOc1ccc(S(=O)(=O)N2CCN(CC)CC2)cc1-c1nc2cc3ncn(Cc4ccccc4OC)c3cc2c(=O)[nH]1`, 180 to 182 °C; with `CC1c2cccc3c2N(CC3)c2ccccc2N1C(=O)CN(C)Cc1ccccc1` (configuration not stated), 101 to 106 °C. With `CN(CCc1ccc(NS(C)(=O)=O)cc1)Cc1ccc2cc(NS(C)(=O)=O)ccc2n1` the figure was 165 to 166 °C; with `Clc1cc2ccccc2c(N2CCSCC2)n1`, 133 °C; with `NC(=O)N(O)CCNC(=O)c1ccc(-c2ccccc2)cc1`, 160 to 162 °C.

Turning to `Cc1nc(-c2[nH]c3ccccc3c2C=O)no1`, the melting point was 228 to 230 °C. Molecule `Cc1ncc2cc(-c3ccc(F)cc3)c(N)nc2n1` came in with a melting point of 252 to 254 °C. For `CCCCCCCCCCCCCCCCSCCCCCCCCCCC(=O)NN` the value was 108 °C.

`Nc1nc(Oc2cc(F)cc(F)c2)nc2nc(-c3ccco3)nn12` showed a melting point greater than 300 °C. `Cc1cc(C)c(N)cc1N`: the melting point was in the range of 170 to 172 °C.

Molecule `CC(=O)COc1nc(N2CCCCC2)c2nc(OCC(C)=O)nc(N3CCCCC3)c2n1` displayed a melting point of 188 to 189 °C. Consider `COc1c(Cl)nc(SC)nc1NN`, for which the melting point lay within 118 to 119 °C. With `Cc1cc(N)c(NC(=O)OC(C)(C)C)cc1C(F)(F)F` the figure was 144 °C. For `C[C@@H]1CCCN1CCCOc1ccc(-c2ccc(S(=O)(=O)Cc3ccccc3)nn2)cc1` the value was 136 °C. With `O=P(O)(O)COc1ccc2c(c1)[nH]c1ccccc12` the figure was 291 °C. The molecule `CCCOC(=O)C(C)Oc1ccc(Oc2cnc3cc(F)ccc3n2)cc1F` (configuration not stated) returned a melting point of 49 to 51 °C. With `CCC(=O)N(c1ccncc1)c1c[nH]c2ccccc12` the figure was 166 to 168 °C; with `CC(CCC(=O)O)c1ccc(OCc2ccccc2C(=O)O)cc1` (configuration not stated), 104 to 106 °C; with `NS(=O)(=O)c1ccc(-c2c(COCCCO)n[nH]c2-c2ccc(Cl)cc2)cc1`, 96 °C. In turn, `CS(=O)(=O)C(=C1CN(C(c2ccc(Cl)cc2)c2ccc(Cl)cc2)C1)c1cccc(C(=O)NN2CCCCC2)c1` showed a melting point of 175 °C. `CN(C)C1=NS(=O)(=O)c2ccccc21`: the melting point was 323 to 324 °C. For `CSc1ncc(C#N)c(NC2CCCC2)n1` the value was 119 to 122 °C. With `CC(=O)Nc1ccc([N+](=O)[O-])c(N2CCN(C(C)=O)CC2)n1` the figure was 189 to 193 °C; with `COc1ccc(C(=O)C(N=C=S)c2ccc(OC)cc2)cc1` (configuration not stated), 155 °C; with `CC(=O)OCc1cc(N)ccc1N1C(=O)c2ccc(Cl)cc2C1=O`, 136 to 138 °C.

`O=c1[nH]c2ncc(-c3ccn[nH]3)nc2n1CC1CCCCC1`: the melting point was 264 to 266 °C. For `O=C(c1ccccc1)C1CCN(Sc2ccncc2)CC1` the value was 123 to 124 °C; for `CCn1cc(C(=O)NC2CCCc3ccccc32)c(=O)c2cnc(N3CCCC3)nc21` (configuration not stated), 284 to 286 °C. For `CCC1(CCCCCl)C(=O)Nc2ccc(Cl)cc21` (configuration not stated) the value was 116 to 117 °C. Molecule `COCC(=O)Nc1cccc(NC(=O)COC)c1` yielded a melting point of 110 to 111 °C. With `Cc1ccccc1-n1nccc1-c1nn(-c2cccc(C(F)(F)F)c2)ccc1=O` the figure was 126 to 127 °C; with `O=C(O)CC1CCCc2c1n(Cc1ccccc1Cl)c1c(F)cc(F)cc21` (configuration not stated), 197 to 198 °C. On to `CC(C)Cc1oc(-c2ccc(F)cc2)nc1CC(=O)O`, for which the melting point lay in the range of 125 to 126 °C. For `CCc1[nH]c(C)c(C(C)=O)c1C` the value was 153 to 160 °C; for `CN1Cc2c(-c3nc(C4CC4)no3)ncn2-c2ccc(F)cc2C1=O`, 216 to 217 °C; for `C=C(COC1CC2C3CCC4=CC(=O)C=CC4(C)C3(F)C(O)CC2(C)C1(O)C(=O)CCl)c1ccccc1` (configuration not stated), 212 to 214 °C.

Molecule `O=C(O)CCCCCCC(O)C(=O)O` (configuration not stated) displayed a melting point of 86 to 92 °C.

For the molecule `Cc1ccc(O)c(-c2nc(-c3cc(C)ccc3O)n(-c3ccc(C(=O)O)cc3)n2)c1`, the melting point is 268 to 269 °C.

In turn, `CC(C)(C)OC(=O)Nc1ccc(NC(=O)C(=O)N2CCC(Cc3ccccc3)CC2)cc1` displayed a melting point of 177 to 179 °C. For `CCS(=O)(=O)c1c(Cl)nc(Cl)nc1Cl` the value was 135 to 136 °C; for `CN(C)c1ccc(NC(=O)N(Cc2ccco2)C[C@H]2CC[C@H](CN(Cc3ccco3)C(=O)Nc3ccc(N(C)C)cc3)CC2)cc1`, 129 to 132 °C. With `COc1nc(Br)cnc1NS(=O)(=O)c1cccc2c(N(C)C)cccc12` the figure was 166 to 167 °C; with `O=c1cc(C(F)(F)C(F)(F)F)nc[nH]1`, 122 to 126 °C.

In turn, `Nc1ncnc2c1c(-c1ccc(Oc3ccc(OCCO)cc3)cc1)cn2CCO` registered a melting point of 166 °C. With `CC1CC(=O)c2c(C(=O)Nc3ccc(F)cc3)c[nH]c2C1` (configuration not stated) the figure was 262 to 264 °C.

`NS(=O)(=O)c1ccc(NN=C2C(=O)Nc3ccc(C(=O)NCCO)cc32)cc1` came in with a melting point greater than 230 °C. For `Cc1cc(Cl)c2c(C#N)cn(-c3ccc(C(C)C)cc3Br)c2n1` the value was 123 °C. With `CC(c1ccc2c(c1)C(=O)c1ccccc1C2=O)N1CCN(C)CC1` (configuration not stated) the figure was 98.9 to 102 °C; with `CCNC(=O)CN(c1c(Cc2c(F)cccc2F)cccc1OC)S(=O)(=O)c1ccc(OC)c(OC)c1`, 180 °C. For `Brc1ccc2c(c1)C(c1ccncc1)=Cc1ccccc1O2` the value was 195 to 197 °C; for `COC(=O)c1nccnc1Nc1ccc(Cl)cc1`, 135 to 136 °C. On to `N#Cc1[nH]c([N+](=O)[O-])c(Br)c1Br`, for which the melting point lay within 181 to 186 °C. For `CCC(Oc1cnc(Cl)c(Cl)c1)C(=O)NC(C)(C)C#CCO` (configuration not stated) the value was 129 to 131 °C.

With `CC(C)c1cc(-c2c3ccccc3c(Br)c3sc4ccccc4c23)cc(C(C)C)c1OCC(=O)O`, the melting point was 220 to 221 °C. With `Cc1ccc(C(=O)Cc2nnnn2C)c(N)c1` the figure was 155 to 156 °C. For `COc1ccc(NC(C)=O)c(Sc2ccc(C#N)cc2[N+](=O)[O-])c1` the value was 195 to 199 °C; for `Cc1ncc([N+](=O)[O-])n1CCn1c(=O)[nH]c2ccccc2c1=O`, 261 to 264 °C. With `OC1CC2(CCN(C3CCC3)CC2)Oc2ccccc21` (configuration not stated) the figure was 211 to 213 °C; with `COc1ccc(C(O)CN2CCN(c3cccccc3=O)CC2)cc1OC` (configuration not stated), 122 to 124 °C. Molecule `NCCCCCCCC1OCC2(CO1)COC(CCCCCCCN)OC2` (configuration not stated) showed a melting point of 74 to 75 °C.

On to `COc1cccc(OCCCSCCC(=O)O)c1`, for which the melting point lay within 53 to 55 °C.

With `Cc1ccc(Nc2c(N)cc(C(=O)O)cc2S(N)(=O)=O)c(C)c1`, the melting point lay in the range of 241 to 242 °C. With `C=CCN1CCC23CC(=O)CCC2(O)C1Cc1cccc(OC)c13` (configuration not stated) the figure was 166 to 167 °C; with `CC(O)CN1CCN(c2cccccc2=O)CC1` (configuration not stated), 92 to 93 °C. With `COc1ccc(-c2cnc3c(-c4ccccc4)nc(-c4cccc(OC)c4)nc3c2)cc1` the figure was 131 to 132 °C; with `Cc1cc(S(=O)(=O)F)ccc1Br`, 47 to 48 °C. The molecule `CCc1cn(C2CC(O)C(CNC(=O)C(C)S(=O)(=O)c3ccc(Cl)cc3Cl)O2)c(=O)[nH]c1=O` (mixture of isomers) displayed a melting point of 183 to 184 °C. With `Nc1nc(-c2cc(Cl)ccc2Cl)nc(N2CCC[C@H]2C(=O)O)n1` the figure was 144 to 147 °C. For `O=[N+]([O-])c1ccc(SNCCO)c(C(Cl)(Cl)Cl)c1` the value was 85 °C; for `CCC1(CC(=O)OC)OCC(O)c2c1[nH]c1ccccc21` (configuration not stated), 86 to 90 °C. With `CCOC(=O)c1cc2c(Cl)cccc2n1[C@H](C)CNC(=O)OC(C)(C)C` the figure was 115 to 119 °C; with `COC(=O)c1c(C)[nH]c(-c2ccncn2)c1C(=O)OC`, 210 to 211 °C; with `O=C(O)Cc1ccc(OCc2ccccc2)c(Cl)c1`, 121 to 123 °C. Regarding `CC(C)(C)OC(=O)Nc1cc(OCc2ccccc2)c2ccccc2c1I`, the melting point lay within 111 to 112 °C.
